Test results published in PMC13372681, “A natural depsipeptide antibiotic binds the E-site of the bacterial ribosome” (Nature, 2026).
≈ marks a conversion by molar mass, not a printed value. Read-outs that look alike come from different tables or passages of the source. Where a SMILES comes first, the peptide text is derived from it. Bridges are numbered along the chain shown (N, C = ends). [ ]: non-standard residue; d: D form. dOrn = NCCC[C@@H](N)C(=O)O

Legend:
E. coli ribosome = experiment: Translocation assay; type: biochemical; settings: 250 μM negamycin; pre-translocation complex, toeprint read-out
Method: In vitro translocation assay was carried out using the model mRNA MFK (Supplementary Table 9) as described. The mRNA was prepared by in vitro transcription of a PCR product amplified using the primers MF_F1, MF_F2, and MF_R (Supplementary Table 8). A 4.5 μl reaction containing 1 μM E. coli ribosomes, 0.5 μM mRNA, 1 μM tRNAi^Met, 0.5 μM radiolabelled NV1 primer (Supplementary Table 8), 2 U μl^−1 RiboLock RNase Inhibitor (Thermo), and antibiotic tested (50 μM MKM or 250 μM negamycin) in pure system buffer (PSB; 9 mM Mg(CH3COO)2, 5 mM K3PO4, 95 mM potassium glutamate, 5 mM NH4Cl, 0.5 mM CaCl2, 1 mM spermidine, 8 mM putrescine, 1 mM dithiothreitol, pH 7.3)[90] was incubated for 20 min at 37 °C. Then N-acetyl-Phe-N-tRNA^Phe (ref. [91]), in which amino acid is attached to the A3′ hydroxyl of the tRNA via an amide bond, was added to the final concentration of 2 μM followed by 10 min incubation at 37 °C. After addition of the E. coli EF-G and GTP to the final concentrations of 0.2 μM and 533 μM, respectively and incubation for 5 min at 30 °C, 1 µl of the mixture of AMV reverse transcriptase (Roche) and dNTPs (2.1 U/µl AMV reverse transcriptase and 2 mM dNTPs in PSB) was added, and the reactions were incubated for another 5 min at 30 °C. […]

E. coli ΔtolC ΔbamB = settings: broth microdilution
E. coli C1508 = settings: broth microdilution, MDR clinical isolate
S. aureus USA 300 = settings: USA 300
M. tuberculosis H37Ra = settings: Middlebrook 7H9 + 10% OADC + 0.05% Tween-80
[1] = system: M. bovis BCG Pasteur ATCC 35734; settings: Middlebrook 7H9 + 10% OADC + 0.05% Tween-80

Row | SMILES | inhibition of EF-G-dependent translocation (E. coli ribosome) | MIC (E. coli ΔtolC ΔbamB; Ca+ MHB Medium) [µg/mL] | MIC (E. coli ΔtolC ΔbamB; MOPS Minimal Medium) [µg/mL] | MIC (E. coli ΔtolC ΔbamB; RPMI Medium) [µg/mL] | MIC (E. coli C1508; Ca+ MHB Medium) [µg/mL] | MIC (E. coli C1508; MOPS Minimal Medium) [µg/mL] | MIC (E. coli C1508; RPMI Medium) [µg/mL] | MIC (S. aureus USA 300) [µg/mL] | MIC (S. aureus ATCC 29213) [µg/mL] | MIC (Bacillus subtilis 168) [µg/mL] | MIC (M. tuberculosis H37Ra) [µg/mL] | MIC [1] [µg/mL]
1 | CN(CC(=O)O)NC(=O)C[C@H](N)C[C@@H](O)CN [negamycin] | notably inhibited |  |  |  |  |  |  |  |  |  |  | 
2 | C[C@@H](O)[C@@H]1NC(=O)[C@@H](CCCNC(=N)N)NC(=O)[C@@H](CCCNC(=N)N)NC(=O)[C@@H](CC(N)=O)NC(=O)[C@@H](NC(=O)[C@@H](Cc2ccccc2)NC(=O)[C@@H](CCCNC(=N)N)NC(=O)[C@H](N)CCCNC(=N)N)[C@@H](C)OC(=O)[C@H](Cc2c[nH]cn2)NC1=O [MKM-B] (H-[dR][dR][dF]T[dN][dR][dR]TH; ester 4-C) |  | 4 (≈ 3.26 µM) | 1 (≈ 0.816 µM) | 1 (≈ 0.816 µM) | 16 (≈ 13.1 µM) | 4 (≈ 3.26 µM) | 4 (≈ 3.26 µM) | 64 (≈ 52.2 µM) | 32 (≈ 26.1 µM) | 32 (≈ 26.1 µM) | 0.25 | 0.25
3 | C[C@@H](O)[C@@H]1NC(=O)[C@@H](CCCNC(=N)N)NC(=O)[C@@H](CCCNC(=N)N)NC(=O)[C@@H](CC(N)=O)NC(=O)[C@@H](NC(=O)[C@@H](Cc2ccccc2)NC(=O)[C@@H](CCCN)NC(=O)[C@@H](CCCNC(=N)N)NC(=O)[C@@H](N)CCCNC(=N)N)[C@@H](C)OC(=O)[C@H](Cc2c[nH]cn2)NC1=O [MKM-E] (H-R[dR][dOrn][dF]T[dN][dR][dR]TH; ester 5-C; N-terminus assumed) |  | 2 (≈ 1.49 µM) | 0.5 (≈ 0.373 µM) | <0.5 | 8 (≈ 5.97 µM) | 1 (≈ 0.747 µM) | 1 (≈ 0.747 µM) | 16 (≈ 11.9 µM) | 32 (≈ 23.9 µM) | 32 (≈ 23.9 µM) | 1 | 1
